Test results: US20140221499A1, “NOVEL RODENT CONTROL AGENTS AND USES THEREOF” (priority 2011, published 2014)

How the values were obtained:
mouse TAAR4 = biological target: T1, mouse TAAR4 (Mus musculus, UniProt Q5QD15); experiment: TAAR4 CRE-SEAP reporter gene assay in transfected HEK293 cells; assay type: cell-based; details: concentration series of pure chemicals
T1 construct: Full Taar coding regions were cloned into pcDNA3.1-(Invitrogen); expressed in transfected cells; host or cells: HEK293
T1 sequence (Q5QD15 1-347): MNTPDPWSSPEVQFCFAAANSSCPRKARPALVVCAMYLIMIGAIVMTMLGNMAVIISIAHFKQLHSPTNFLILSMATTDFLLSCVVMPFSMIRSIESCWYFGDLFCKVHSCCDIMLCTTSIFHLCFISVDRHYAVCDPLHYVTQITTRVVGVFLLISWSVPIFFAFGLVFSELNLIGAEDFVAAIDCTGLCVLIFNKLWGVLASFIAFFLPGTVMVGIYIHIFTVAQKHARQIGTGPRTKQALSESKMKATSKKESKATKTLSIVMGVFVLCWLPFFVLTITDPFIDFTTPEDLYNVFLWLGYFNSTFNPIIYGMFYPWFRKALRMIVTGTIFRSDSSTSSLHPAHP
Protocol: HEK293 cells were co-transfected with TAAR expression plasmids and a cAMPdependent reporter gene encoding secreted alkaline phosphatase (CRE-SEAP). Transfected cells were incubated with urine extracts from different mammalian species, and phosphatase activity was quantified with a fluorescent substrate as a reporter for TAAR activation.
Test urines were diluted in serum-free media containing penicillin G (100 Units/ml, Invitrogen) and streptomycin sulfate (100 mg/ml, Invitrogen). SEAP activity is measured as fluorescence resulting from dephosphorylation of a substrate, 4-methylumbelliferyl phosphate. Fluorescence values were obtained using an EnVision plate reader (Perkin Elmer) and are reported directly without normalization.

mouse TAAR3 = biological target: T2, mouse TAAR3 (Mus musculus, UniProt Q5QD16); experiment: TAAR3 CRE-SEAP reporter gene assay in transfected HEK293 cells; assay type: cell-based
T2 construct: Full Taar coding regions were cloned into pcDNA3.1-(Invitrogen); expressed in transfected cells; host or cells: HEK293
T2 sequence (Q5QD16 1-343): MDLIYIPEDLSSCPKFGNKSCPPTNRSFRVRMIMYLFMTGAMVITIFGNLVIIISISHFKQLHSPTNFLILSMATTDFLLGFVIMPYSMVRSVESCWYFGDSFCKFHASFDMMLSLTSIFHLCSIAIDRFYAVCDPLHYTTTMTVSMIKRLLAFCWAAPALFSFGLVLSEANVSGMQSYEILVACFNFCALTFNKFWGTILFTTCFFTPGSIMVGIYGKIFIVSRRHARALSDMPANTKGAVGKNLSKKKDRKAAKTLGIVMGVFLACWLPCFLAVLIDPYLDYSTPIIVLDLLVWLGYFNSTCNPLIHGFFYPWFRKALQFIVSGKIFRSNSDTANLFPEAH
Protocol: Reporter gene assays were performed on HEK293 cells transfected with mouse TAAR3 and CRE-SEAP.
TAAR functional assays. Reporter gene assays were performed as described (Liberles S D & Buck LB (2006) A second class of chemosensory receptors in the olfactory epithelium. Nature 442(7103):645-650) with the following minor modifications. Test urines were diluted in serum-free media containing penicillin G (100 Units/ml, Invitrogen) and streptomycin sulfate ([…], Invitrogen). SEAP activity is measured as fluorescence resulting from dephosphorylation of a substrate, 4-methylumbelliferyl phosphate. Fluorescence values were obtained using an EnVision plate reader (Perkin Elmer) and are reported directly without normalization. All TAARs, except mouse TAAR3, were expressed as fusion proteins with an N-terminal sequence of bovine rhodopsin (Krautwurst D, Yau K W, & Reed R R (1998) Identification of ligands for olfactory receptors by functional expression of a receptor library. Cell 95(7):917-926).

[1] = tested on: mouse olfactory sensory neurons; experiment: Confocal calcium imaging of olfactory sensory neurons in tissue slices; assay type: cell-based; details: dorsal olfactory epithelium
Protocol: The mammalian olfactory system encodes odor identity using combinations of olfactory receptors (11). […] Here, we used a confocal imaging strategy to record cytosolic calcium transients of single sensory neurons in real time. Viability of analyzed neurons was determined after odor exposures by KCl-induced depolarization.
Confocal calcium imaging of olfactory sensory neurons in tissue slices. Recordings were performed as described (Spehr M, et al. (2006) Essential role of the main olfactory system in social recognition of major histocompatibility complex peptide ligands. J Neurosci 26(7):1961-1970) with the following modifications. For calcium sensitive dye loading, slices of olfactory epithelium were incubated (30 min, 4° C.) in HEPES solution (in mM: 145 NaCl, 5 KCl, 1 CaCl2, 1 MgCl2, 10 HEPES; pH=7.3) containing Fluo-4/AM (2 μM; Molecular Probes). Slices were transferred to a recording chamber (Slice Mini Chamber, Luigs & Neumann, Ratingen, Germany) and visualized using a Leica DM6000CFS confocal fixed stage upright microscope (Leica Microsystems, Mannheim, Germany) equipped with an apochromatic water immersion objective (HC X APO L20x/1.0 W) and infrared-optimized differential interference contrast (DIC) optics. Slices were anchored via stainless steel wires with 0.1 mm lycra threads and continuously superfused with HEPES-buffered solution. Changes in cytosolic calcium were monitored over time at 1.0 Hz frame rate. Stimulus application as well as solution exchange during inter-stimulus intervals was achieved by a custom-made, pressure-driven focal application device consisting of a software-controlled valve bank connected to a 7-in-1 ‘perfusion pencil’. Rhodamine application controlled for uniform flow and even stimulus application throughout the epithelial sensory surface. Offline analysis of time-lapse experiments was performed using LAS-AF software (Leica). All cells in a given field of view were marked as individual regions of interest (ROIs), and the relative fluorescence intensity for each ROI was calculated and processed as a function of time.

Sprague-Dawley rats = experiment: Open field odor avoidance; assay type: in vivo, rat; details: ten minute exposure, 12 animals ±SEM; 1 ml urine or 5 μl amine
Protocol: We next examined behavioral responses of rodents to 2-phenylethylamine. […] Behaviors of rats in a square-shaped arena were recorded and analyzed following placement of test stimuli in a pseudorandom corner (FIG. 5A). […] Thus, 2-phenylethylamine, in the absence of other predator odor cues, was sufficient to evoke rat avoidance behavior.
Open field behavioral analysis. Rat behavioral responses to odors in the open field were measured as described previously (Fendt M (2006) Exposure to urine of canids and felids, but not of herbivores, induces defensive behavior in laboratory rats. Journal of chemical ecology 32(12):2617-2627) with the following modifications. Adult Sprague-Dawley rats (240-340 g; Janvier, Le Genest St. Isle, France) were placed in the center of a 45 cm×45 cm Plexiglass arena (TSE Systems, Bad Homburg, Germany) equipped with infrared sensors (distance 14 mm, illumination 80-120 lux). The arena contained glass dishes (36 mm) in each corner, with one dish containing test stimuli. Prior to testing, animals were habituated to the arena by introducing them for three consecutive days. […] Location of the rats was automatically recorded using the infrared detectors and analyzed (TSE Systems software). Statistical significance was measured using Wilcoxon Signed Test (**p<0.01; comparison with chance level (25%)). […]

[2] = tested on: corticosterone levels in rat plasma; experiment: Plasma corticosterone assay after odor exposure; assay type: in vivo; details: 30 min exposure, 10% amine or 2% TMT, 1 ml, ±SEM
Protocol: Avoidance to 2-phenylethylamine in rats was associated with acute changes in circulating levels of the stress hormone corticosterone.
Plasma corticosterone assay. […] Corticosterone levels were measured in duplicate using a competitive radioactive binding assay as described previously (Pryce C R, Bettschen D, Bahr N I, & Feldon J (2001) Comparison of the effects of infant handling, isolation, and nonhandling on acoustic startle, prepulse inhibition, locomotion, and HPA activity in the adult rat. Behav Neurosci 115(1):71-83).

olfactory TAARs = experiment: TAAR reporter gene assay, panel of mouse and rat TAARs in HEK293 cells; assay type: cell-based; details: mouse and rat TAARs
From the text: Here, we set out to identify agonists for additional mouse and rat TAARs. We examined odor response profiles using a previously established reporter gene assay based on cAMP-dependent odor transduction in olfactory sensory neurons (40, 42). Briefly, TAAR plasmids were transfected into HEK293 cells along with a cAMP-dependent reporter gene encoding secreted alkaline phosphatase (CRE-SEAP). TAARs were expressed both in unmodified form and as fusion proteins with an N-terminal sequence of bovine rhodopsin (‘Rho tag’) that promotes cell surface expression of some chemosensory receptors (35). Transfected cells were incubated with test chemicals, and phosphatase activity was quantified with a fluorescent substrate as a reporter for TAAR activation. In initial experiments, we tested 38 different odorant mixtures containing 244 structurally diverse test chemicals (2-5 μM) for the ability to activate each mTAAR. Subsequently, we tested 73 amines that included known mTAAR agonists and related chemicals for the ability to activate each rTAAR.
TAAR functional assays. Full Taar coding regions were cloned into pcDNA3.1-(Invitrogen) with or without a 5′ DNA extension of 69 bp encoding the first 20 amino acids of bovine rhodopsin followed by a cloning linker ([…]). Point mutations were introduced in mTAAR7e and mTAAR7f by overlap extension PCR. Functional assays were performed as described (40, 42). Fluorescence was measured on an EnVision plate reader (Perkin Elmer) and SEAP activity graphed as relative fluorescence of a phosphatase substrate.

In the case of `NCc1ccccc1` [benzylamine, reference compound], the TAAR4 activation (mouse TAAR4) is reported as “did not similarly activate TAAR4”, the EC50 (mouse TAAR3) is reported as about 200 µM and the “carnivore odor-selective neurons activated by 2-phenylethylamine that also responded to benzylamine” value [1] is reported as 0/1268. The “percentage of time rats are located in the odor quadrant” value (Sprague-Dawley rats) was 29±7.2% and the “plasma levels of corticosterone” value [2] was 130 ± 32 ng/mL.

For `CCCCNC` [methylbutylamine], the TAAR activation (olfactory TAARs) was “activated TAARs”.

In the case of `NC1CCCCC1` [cyclohexylamine], the TAAR activation (olfactory TAARs) is reported as “activated TAARs”.

With `CN1CCCCC1` [1-methylpiperidine, N-methylpiperidine] the TAAR activation (olfactory TAARs) was “activated TAARs”.

For `OCCc1ccccc1` [2-phenylethanol], the TAAR4 activation (mouse TAAR4) was “did not activate TAAR4 at any concentration tested”.

In the case of `CC(C)CCN` [isoamylamine], the TAAR3 detection (mouse TAAR3) is reported as “preferred ligand” and the TAAR activation (olfactory TAARs) is reported as “activated TAARs”.

For `CCCCCCCCN(C)C` [N,N-dimethyloctylamine], the TAAR activation (olfactory TAARs) was “activated TAARs”.

`CC1=NC(C)SC1C` (stereo not shown) [TMT, 2,5-dihydro-2,4,5-trimethylthiazole] was tested, and the “plasma levels of corticosterone” value [2] was 238 ± 21 ng/mL.

With `COc1ccc2[nH]cc(CCN(C)C)c2c1` [ligand 7, 5-methoxy-N,N-dimethyltryptamine] the TAAR activation (olfactory TAARs) was “activated different TAAR7 paralogs”.

With `CCCCN(C)C` [N,N-dimethylbutylamine] the TAAR activation (olfactory TAARs) was “activated TAARs”.

`NCCCc1ccccc1` [3-phenylpropylamine] was tested, and the TAAR4 activation (mouse TAAR4) was “activates TAAR4 at high concentrations”.
